From the supplement of paper PMC10949913 come the findings set out here.

Assay in all cases: area under concentration-response curve (viability) (AUC (a.u.)); higher = less active
Conditions in all cases: 48 h

One experiment relates to NCI-H295R. In a few lines:
(§1)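 Three adrenocortical carcinoma cell lines were seeded at 500–1,000 cells/well in 5 µL medium in 1,536-well plates. 23 nL of each MIPE 5.0 library compound was added at 11 concentrations. After 48 h (per the protocol name), CellTiter-Glo was added for 15 minutes at room temperature and luminescence was read. Signals were normalised per plate to vehicle and empty-well controls. AC50 and area under the curve came from fitted concentration-response curves, keeping only inhibitory or non-responding curve classes.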

A further experiment deals with CU-ACC1. In a few lines: as §1
For a further experiment, the system named is CU-ACC2. In outline: as §1

Regarding `CCOc1cc(C(=O)Nc2ccc(Cl)c(-c3nc4ccccc4[nH]3)c2)cc(OCC)c1OCC`, the “area under concentration-response curve” value in the experiment with NCI-H295R was determined as 549; in the experiment with CU-ACC1, 477; with CU-ACC2 it was 618.
On the same counts, the results for `COc1ccccc1OCC(O)CN1CCN(CC(=O)Nc2c(C)cccc2C)CC1` (stereo unspecified) are 569, 535 and 627.
On the same counts, the results for `COc1ccc(Cl)c(Nc2nc3ccccc3nc2N[S+](=O)([O-])c2cccc(NC(=O)C(C)(C)N)c2)c1` are 439, 459 and 536.
For `O=C1\C=C(/OC2=C1C=CC=C2C3=CC=CC=C3)N4CCOCC4`, in that order: 515, 498 and 550.
Consider `Cc1c(NC(=O)c2cc(C(N)=O)nc3cc(F)ccc23)c(C(F)(F)F)nn1Cc1ccc(C(C)(C)C)cc1`, for which the “area under concentration-response curve” value in the experiment with NCI-H295R turned out to be 533; in the experiment with CU-ACC1, 506; in the experiment on CU-ACC2, 589.
For `O=[S+]([O-])(c1cccc2cnccc12)N1CCCNCC1`, in that order: 534, 502 and 560.
Turning to `COc1cc([S+](C)(=O)[O-])ccc1Nc1nc2ccc(-c3ccc(NC(=O)[C@H](C)c4ccc(F)cc4)cc3)cn2n1`, the “area under concentration-response curve” value was 567 in the experiment with NCI-H295R, 565 with CU-ACC1 and 648 with CU-ACC2.
As to `COCCCN1CCC(NC(=O)c2cc(Cl)c(N)c3c2OCC3)CC1`, the “area under concentration-response curve” value in the experiment with NCI-H295R was found to be 565; in the experiment with CU-ACC1, 562; with CU-ACC2, 549.
Take `N#Cc1ccnc(N2C(=O)CC[C@H]2C(=O)N(c2cncc(F)c2)[C@H](C(=O)NC2CC(F)(F)C2)c2ccccc2Cl)c1`: the “area under concentration-response curve” value came to 560 with NCI-H295R, 486 with CU-ACC1 and 613 with CU-ACC2.
For `O=C(CO)N1CCC(c2n[nH]c(-c3ccc(Cl)cc3)c2-c2ccncn2)CC1`, in that order: 515, 520 and 454.
Consider `Cc1cc(C)c(/C=C2\C(=O)Nc3ccccc32)[nH]1`, for which the figures for the “area under concentration-response curve” value with NCI-H295R, with CU-ACC1 and in the experiment with CU-ACC2 were 532, 513 and 559, respectively.
On the same counts, the results for `CN1N(C2=CC=CC=C2)C(=O)C(=C1/C3=CC=CC=C3)/C(=O)C4=CC=C(C)C(=C4N)C5=CC=C6N=C(C)C=CC6=C5` are 553, 531 and 634.
On the same counts, the results for `O=C1NNc2nc(CN3Cc4ccccc4C3)nc3cccc1c23` are 526, 537 and 600.
For `OC[C@H]1O[C@H](C[C@@H]1O)N2\C=C(F)/C(=O)NC2=O`, in that order: 497, 516 and 584.
Turning to `C[C@H]1C[C@@H](n2c(Nc3ccc(OC(F)(F)F)cc3)nc3cc(CCC(=O)O)ccc32)CC(C)(C)C1`, the “area under concentration-response curve” value stood at 485 in the experiment on NCI-H295R, 424 in the experiment on CU-ACC1 and 405 in the experiment on CU-ACC2.
For `Cc1noc(-c2ccc(-c3ccc(C4(C(=O)O)CC4)cc3)cc2)c1NC(=O)O[C@H](C)c1ccccc1`, in that order: 526, 485 and 446.
For `COc1cc(-c2cc(-c3ccc(N4CCNCC4)cc3)cnc2C)cc(OC)c1OC`, in that order: 556, 548 and 585.
On the same counts, the results for `C[C@]12CC(=O)[C@H]3[C@@H](CC\C4=C\C(=O)\C=C/[C@]34C)[C@@H]1CC[C@]2(O)C(=O)CO` are 580, 547 and 652.
For the compound `COCCNCc1ccc(-c2cc3nccc(Oc4ccc(NC(=O)C5(C(=O)Nc6ccc(F)cc6)CC5)cc4F)c3s2)nc1`, the “area under concentration-response curve” value in the experiment on NCI-H295R was 374; with CU-ACC1, 302; with CU-ACC2, 414.
For `OC1CCC(Nc2ncc3nc(Nc4c(F)cc(F)cc4F)n([C@@H]4CCOC4)c3n2)CC1` (stereo partly specified), in that order: 446, 464 and 531.
As for `C[C@]\12CCC(=O)\C=C1CC[C@H]3[C@@H]4CC[C@](O)(C(=O)CO)[C@@]4(C)C[C@H](O)[C@H]23`, the “area under concentration-response curve” value with NCI-H295R worked out at 512; in the experiment with CU-ACC1 it was 458; in the experiment with CU-ACC2, 549.
On to `Cc1oncc1C(=O)Nc1ccc(C(F)(F)F)cc1`, for which the entries for the “area under concentration-response curve” value in the experiment on NCI-H295R, in the experiment on CU-ACC1 and in the experiment with CU-ACC2 were 481, 421 and 498, respectively.
On to `Nc1nc(Cl)nc2c1ncn2[C@@H]1O[C@H](CO)[C@@H](O)[C@@H]1F`, for which the “area under concentration-response curve” value in the experiment on NCI-H295R worked out at 537; in the experiment on CU-ACC1, 468; in the experiment on CU-ACC2 it was 559.
With `O[C@H](C[C@H]1c2c(F)cccc2-c2cncn21)[C@H]1CC[C@H](O)CC1`, the figures for the “area under concentration-response curve” value in the experiment on NCI-H295R, with CU-ACC1 and with CU-ACC2 were 536, 553 and 616, respectively.
For `COc1cc2ncn(-c3cc(OCc4ccccc4C(F)(F)F)c(C(N)=O)s3)c2cc1OC`, the “area under concentration-response curve” value amounted to 506 in the experiment with NCI-H295R, 515 in the experiment on CU-ACC1 and 606 in the experiment on CU-ACC2.
In the case of `NC/1=N/C(=O)N(C[C@@H](CO)OC[P](O)(O)=O)/C=C1`, the figures for the “area under concentration-response curve” value in the experiment on NCI-H295R, in the experiment on CU-ACC1 and in the experiment on CU-ACC2 were 496, 465 and 522, respectively.
On the same counts, the results for `COC1=CC=C2[C@H]3CC[C@]4(C)[C@H](CC[C@H]4[C@@H]3CCC2=C1)NCCCCCCN5C(=O)\C=C/C5=O` are 517, 496 and 460.
On the same counts, the results for `C/C1=C2/[N]3[Co+]456([OH])<-[N]7=C1[C@@H](CCC(N)=O)C(C)(C)/C7=C/C1=[N]->4C(=C(/C)C4=[N]->5[C@@](C)([C@H]3[C@H](CC(N)=O)[C@@]2(C)CCC(=O)NC[C@@H](C)OP(=O)([O-])O[C@H]2[C@@H](O)[C@@H](n3c[n]->6c5cc(C)c(C)cc53)O[C@@H]2CO)[C@@](C)(CC(N)=O)[C@@H]4CCC(N)=O)/[C@@](C)(CC(N)=O)[C@@H]1CCC(N)=O` are 564, 495 and 595.
On to `COC1=CC(=C2C(=O)N\C(=N/C2=C1)C3=CC(=C(OCCO)C(=C3)C)C)OC`, for which the figures for the “area under concentration-response curve” value with NCI-H295R, with CU-ACC1 and in the experiment with CU-ACC2 were 541, 532 and 532, respectively.
As to `C[C@@H]1CN(Cc2ccc(F)cc2)[C@@H](C)CN1C(=O)c1cc2c(C(=O)C(=O)N(C)C)cn(C)c2cc1Cl`, the “area under concentration-response curve” value in the experiment with NCI-H295R came to 552; in the experiment with CU-ACC1, 515; in the experiment with CU-ACC2, 634.
Take `O=C(NCC(=O)N1CC[C@H](NC2CCC(O)(c3ccc(-c4ncccn4)cn3)CC2)C1)c1cccc(C(F)(F)F)c1` (stereo partly specified): the figures for the “area under concentration-response curve” value in the experiment on NCI-H295R, in the experiment with CU-ACC1 and with CU-ACC2 were 560, 554 and 606, respectively.
As for `CC(C)(NC(=O)O[C@@H]1CN2CCC1CC2)c1csc(-c2ccc(F)cc2)n1`, the “area under concentration-response curve” value was determined as 480 in the experiment on NCI-H295R, 479 with CU-ACC1 and 477 in the experiment with CU-ACC2.
Turning to `COc1ccc2c(OCc3nnc4ccc(-c5ccccc5)nn34)ccnc2c1`, the “area under concentration-response curve” value in the experiment with NCI-H295R worked out at 589; in the experiment with CU-ACC1, 520; in the experiment with CU-ACC2 it was 609.
For `COC[C@@H](c1ccc(C(F)(F)F)cc1)N1CCN(C2(C)CCN(C(=O)c3c(C)ncnc3C)CC2)C[C@@H]1C`, in that order: 513, 501 and 541.
Take `CCCOc1ccn2c(C(C)=O)cc(-c3ccccc3[S+](C)(=O)[O-])c2c1`: the “area under concentration-response curve” value in the experiment on NCI-H295R came out at 527; in the experiment on CU-ACC1, 485; with CU-ACC2 it was 445.
As to `CCOC\1=C(/C(=O)NC2=CC=C(OC3=C(Cl)C(=NC=C3)N)C(=C2)F)C(=O)N(\C=C1)C4=CC=C(F)C=C4`, the results for the “area under concentration-response curve” value in the experiment on NCI-H295R, in the experiment on CU-ACC1 and in the experiment on CU-ACC2 were 530, 522 and 578, respectively.
In the case of `CCCCNc1ncc2c(-c3ccc(CN4CCN(C)CC4)cc3)cn(C3CCC(O)CC3)c2n1` (stereo unspecified), the “area under concentration-response curve” value with NCI-H295R was determined as 527; in the experiment with CU-ACC1 it was 513; in the experiment on CU-ACC2, 585.
